The subject of assay [1] is triple-negative breast cancer MDA-MB-231 cells. Briefly: Triple-negative breast cancer cell adhesion to basement matrix. The assay is classed as cell-based, human. The note with it: Homo sapiens, MDA-MB-231. The protocol:
Nanty-six well plates were coated with 50 μl Matrigel (1:30 diluted in PBS) at 37° C. for 1 hour.
Cancer cells, pre-labelled with fluorescent die DiI at 37° C. for 20 minutes, were washed twice with PBS and resuspended into 3×10^4 cells/ml in serum-free medium. The matrix-coated 96-well plates were washed twice with PBS before introduction of 100μ cell suspension with different concentrations of the inhibitors or PBS/DMSO (control) for 1 hour at 37° C. The plates were washed twice with PBS before three randomly selected Field of Views (FOVs) were recorded by fluorescence microscope and number of adhesion cells were quantified by Image J.
MDAMB-231 or PANC-1 cells were seeded into 6-well plate (2×10^5 cells) and cultured at 37° C. for 24 hour. Galectin-3 CRISPR Cas9 Knockout plasmid (2 μg) and galectin-3 HDR plasmid (2 μg) was mixed with Plasmid Transfection Medium (21 μl) for 5 minutes before addition to a mixture of lipofectamine STEM Transfection Reagent (STEM00001) (1 μl) and Plasmid Transfection Medium (25 μl) for 10 minutes at room temperature. The cells in the 6-well plates were washed and introduced with the Plasmid DNA/Lipofectamine STEM Transfection Reagent complex at 37° C. for 24 hour. The culture medium was replaced with fresh antibiotics-free medium for further 24 hour before introduction of 10 μg/mL puromycin-containing medium every three days. Successful co-transfection of the CRISPR/Cas9 KO Plasmid and HDR Plasmid was confirmed by expression of red fluorescence protein of the cells. Galectin-3 knockout in the cells was further confirmed by immunoblotting.

Another assay concerns the target T1, Galectin-3 (Homo sapiens, UniProt P17931).
T1 construct: made in house; host or cells: E. coli
The assay is described as follows: Galectin-3 binding to asialofetuin (ASF) ELISA. As for the experimental part:
Effect of the inhibitors on galectin binding to its ligand asialo fetuin (ASF) was measured by galectin ELISA. Nanty-six well plates were coated overnight with 20 μg/ml ASF in coating buffer (15 mM Na2CO3 17 mM NaHCO3 pH 9.6.). The wells were washed twice with PBS and incubated with blocking buffer (1% BSA in PBS) for 1 hr. The supernatants were removed and replaced with 5 μg/ml recombinant human galectin without or with different concentrations of the compound inhibitors or lactose in blocking buffer for 1 hr at room temperature. The wells were washed and incubated with 1 μg/ml anti-galectin antibody for 2 hr. Following addition of HRP-conjugated secondary antibody for 1 hr, FAST OPD development solution was added for 15-20 minutes. The reaction was terminated by addition of 4M sulphuric acid. The plates were read at 492 nm (reference wavelength 595 nm) by a microplate reader.
For orientation: ELISA stands for enzyme-linked immunosorbent assay.

For assay [2], the system named is human melanoma ACA19 cells. Briefly: Galectin-3-mediated ACA19 cell adhesion to HUVECs. The assay is classed as cell-based. The note with it: Galectin-3 2 μg/ml, various concentrations. The protocol: HUVEC cells at 1×10^5 cells/ml in EGM medium were seeded into 24 well plates pre-inserted with 13 mm glass coverslip. The cells were incubated at 37° C. at 5% CO2 for 24 hr for monolayer formation. AGA19+ or SW620 cell suspension (5×10^5 cells/ml in DMEM) was introduced with 5 μl/ml fluorescent cell labelling solution DiL for 30 min at 37° C. The fluorescent labelled cells were washed twice with PBS and resuspended into 1×10^5 cells/ml in DMEM. The cancer cell suspension was then introduced with galectin-3 (2 μg/ml) and various concentrations of the compound inhibitors at 37° C. for 1 hr. The wells were carefully washed twice with PBS to remove the non-adhesion cells before the cells in the wells were fixed with 2% paraformaldehyde for 10 min. The glass coverslip was carefully removed from the plate, placed on a glass slide. After addition of fluorescence mounting medium containing DAPI, fluorescence labelled cells were quantified under a fluorescence microscope.

SMILES strings stand for the structures. Where a name gives a salt, the structure may show the parent alone.

T1 sequence (P17931 whole entry): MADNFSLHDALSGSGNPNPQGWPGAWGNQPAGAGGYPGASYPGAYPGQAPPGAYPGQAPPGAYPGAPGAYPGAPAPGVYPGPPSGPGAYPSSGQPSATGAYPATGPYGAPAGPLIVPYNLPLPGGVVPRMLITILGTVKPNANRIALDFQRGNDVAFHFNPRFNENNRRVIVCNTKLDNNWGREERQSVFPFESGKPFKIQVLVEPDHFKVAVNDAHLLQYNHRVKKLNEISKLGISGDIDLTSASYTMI

By IC50 is commonly meant the concentration needed to halve the response being measured. With `NC1CCN(c2nc3c(cc2F)c(=O)c(C(=O)O)cn3-c2ccc(F)cc2F)C1` (stereo not shown) [Formula X, Tosufloxacin tosylate], the half-inhibitory concentration (IC50) in assay [1] was about 10 µM; on Galectin-3 (read-out: IC50, inhibition of Galectin-3 binding to its ligand), at most 10 µM. In addition, at Galectin-3 (Galectin-3 5 μg/ml, ASF 20 μg/ml, different concentrations of compound, ELISA), the “Inhibition of Galectin-3 binding to its ligand asialofetuin (ASF)” value was “inhibit galectin-3 binding to ASF in a dose-dependent manner”. Besides, the “Inhibition of ACA19 cell adhesion to HUVECs” value in assay [2] is reported as “dose-dependent inhibition”.

The values above are taken from patent US20260232644A1, “Compositions Comprising an Inhibitor of Galectin-3” (University of Liverpool, priority 2023, published 2026).
